For 25 molecules, IC50 results are on record in patent US20100311714A1, “1H-IMIDAZO[4,5-c]QUINOLINONE COMPOUNDS” (priority 2009, published 2010).

Each structure is given as a SMILES string.

Assay [1] relates to S6 Ribosomal Protein phosphorylation Ser235/236 in TSC1 null mouse embryo fibroblast (MEF) cells. The assay is described as follows: Reverse protein array, S6 Ribosomal Protein phosphorylation in TSC1 null MEF cells. It is filed as cell-based. The settings on record: 1 h, TSC1-/- MEFs, 60 minutes, read-out: p-S6 IC50. Put shortly:
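Phospho-S6 (Ser235/236) was quantified by reverse protein array of cell lysates with a phospho-specific primary antibody. […]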

The next assay concerns the target T1, PI3K alfa (Homo sapiens, UniProt P42336).
T1 construct: His tag (C); made in house; host or cells: baculovirus BV1075; Tn5 (Trichoplusia ni) or TiniPro insect cells
Nature of the assay: PI3K alpha kinase assay (Kinase-Glo luminescence). It is filed as biochemical. The following applies: read-out: EPK_PI3Kalfa/IC50. An outline of the steps: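 IC50 values come from a four-parameter logistic fit of percent inhibition at eight concentrations, typically 10 to 0.003 μM. Recombinant PI3Kα at 10 nM turned over 1 μM ATP with 10 μg/mL PI for 60 min at room temperature, and residual ATP was measured by Kinase-Glo.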

T1 sequence (P42336 with tags, fused parts or gaps limits assumed): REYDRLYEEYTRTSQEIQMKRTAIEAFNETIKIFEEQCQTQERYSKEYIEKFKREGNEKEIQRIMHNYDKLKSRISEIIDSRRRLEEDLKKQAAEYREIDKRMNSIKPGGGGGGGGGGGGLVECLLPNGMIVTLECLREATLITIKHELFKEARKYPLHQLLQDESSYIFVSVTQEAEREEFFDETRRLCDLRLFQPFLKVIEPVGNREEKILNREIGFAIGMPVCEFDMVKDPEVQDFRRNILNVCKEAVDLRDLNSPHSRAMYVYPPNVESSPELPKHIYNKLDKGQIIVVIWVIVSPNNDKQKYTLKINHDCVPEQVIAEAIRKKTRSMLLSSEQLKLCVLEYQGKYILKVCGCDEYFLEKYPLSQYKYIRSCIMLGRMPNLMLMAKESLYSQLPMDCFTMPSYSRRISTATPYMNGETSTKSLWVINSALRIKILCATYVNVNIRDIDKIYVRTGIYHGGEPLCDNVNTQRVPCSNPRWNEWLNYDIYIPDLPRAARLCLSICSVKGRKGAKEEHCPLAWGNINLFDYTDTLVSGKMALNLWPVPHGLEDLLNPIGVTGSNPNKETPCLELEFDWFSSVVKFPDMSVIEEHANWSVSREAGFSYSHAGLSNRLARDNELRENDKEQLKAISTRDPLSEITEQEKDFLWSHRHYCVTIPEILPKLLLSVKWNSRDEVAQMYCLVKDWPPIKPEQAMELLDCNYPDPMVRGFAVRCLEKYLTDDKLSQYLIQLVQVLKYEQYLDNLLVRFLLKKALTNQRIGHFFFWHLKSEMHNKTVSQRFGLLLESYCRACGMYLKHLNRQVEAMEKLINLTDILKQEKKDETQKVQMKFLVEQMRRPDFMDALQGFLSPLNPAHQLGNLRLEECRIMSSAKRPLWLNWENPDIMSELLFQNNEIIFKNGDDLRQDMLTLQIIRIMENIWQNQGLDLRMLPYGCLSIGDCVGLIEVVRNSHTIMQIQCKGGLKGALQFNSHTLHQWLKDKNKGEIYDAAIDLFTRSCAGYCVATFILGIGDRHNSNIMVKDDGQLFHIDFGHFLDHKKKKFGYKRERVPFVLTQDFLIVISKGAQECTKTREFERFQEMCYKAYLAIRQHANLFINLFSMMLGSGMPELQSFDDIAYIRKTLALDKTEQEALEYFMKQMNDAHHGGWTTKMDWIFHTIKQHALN

For `CCNc1cc(-c2ccc3ncc4c(c3c2)n(-c2ccc(C)nc2C)c(=O)n4C)cnc1C` [Example 14.6, 1-(2,6-Dimethyl-pyridin-3-yl)-8-(5-ethylamino-6-methyl-pyridin-3-yl)-3-methyl-1,3-dihydro-imidazo[4,5-c]quinolin-2-one], the IC50 stood at 2 nM in assay [1] and 19 nM at PI3K alfa.

For `Cc1ccc(-n2c(=O)n(C)c3cnc4ccc(-c5cnc6c(ccn6C)c5)cc4c32)c(C)n1` [Example 14.7, 1-(2,6-Dimethyl-pyridin-3-yl)-3-methyl-8-(1-methyl-1H-pyrrolo[2,3-b]pyridin-5-yl)-1,3-dihydro-imidazo[4,5-c]quinolin-2-one], the values for the IC50 (in assay [1]; on PI3K alfa) were 3 nM and 16 nM, respectively.

For the molecule `Cc1ccc(-n2c(=O)n(C)c3cnc4ccc(-c5cncc(NC(C)C)c5)cc4c32)c(C)n1` [Example 14.8, 1-(2,6-Dimethyl-pyridin-3-yl)-8-(5-isopropylamino-pyridin-3-yl)-3-methyl-1,3-dihydro-imidazo[4,5-c]quinolin-2-one], the IC50 in assay [1] worked out at 2 nM; on PI3K alfa, 37 nM.

With `COCCN(C)c1ccc(-n2c(=O)n(C)c3cnc4ccc(-c5cnc(N)c(C(F)(F)F)c5)cc4c32)c(C)n1` [Example 15.1, 8-(6-Amino-5-trifluoromethyl-pyridin-3-yl)-1-{6-[(2-methoxy-ethyl)-methyl-amino]-2-methyl-pyridin-3-yl}-3-methyl-1,3-dihydro-imidazo[4,5-c]quinolin-2-one], the IC50 in assay [1] was 1 nM; on PI3K alfa, 7 nM.

As to `CNc1ncc(-c2ccc3ncc4c(c3c2)n(-c2ccc(N(C)CCOC)nc2C)c(=O)n4C)cn1` [Example 15.2, 1-{6-[(2-Methoxy-ethyl)-methyl-amino]-2-methyl-pyridin-3-yl}-3-methyl-8-(2-methylamino-pyrimidin-5-yl)-1,3-dihydro-imidazo[4,5-c]quinolin-2-one], the figures for the IC50 (in assay [1]; at PI3K alfa) were 7 nM and 39 nM, respectively.

Regarding `CCOc1ccc(-c2ccc3ncc4c(c3c2)n(-c2ccc(N(C)CCOC)nc2C)c(=O)n4C)cn1` [Example 15.3, 8-(6-Ethoxy-pyridin-3-yl)-1-{6-[(2-methoxy-ethyl)-methyl-amino]-2-methyl-pyridin-3-yl}-3-methyl-1,3-dihydro-imidazo[4,5-c]quinolin-2-one], the values for the IC50 (in assay [1]; at PI3K alfa) were 130 nM and 103 nM, respectively.

As to `CNc1ccc(-c2ccc3ncc4c(c3c2)n(-c2ccc(N(C)CCOC)nc2C)c(=O)n4C)cn1` [Example 15.4, 1-{6-[(2-Methoxy-ethyl)-methyl-amino]-2-methyl-pyridin-3-yl}-3-methyl-8-(6-methylamino-pyridin-3-yl)-1,3-dihydro-imidazo[4,5-c]quinolin-2-one], the IC50 in assay [1] is 3 nM; on PI3K alfa it was 46 nM.

Regarding `COCCN(C)c1ccc(-n2c(=O)n(C)c3cnc4ccc(-c5cnc(N(C)C)nc5)cc4c32)c(C)n1` [Example 15.5, 8-(2-Dimethylamino-pyrimidin-5-yl)-1-{6-[(2-methoxy-ethyl)-methyl-amino]-2-methyl-pyridin-3-yl}-3-methyl-1,3-dihydro-imidazo[4,5-c]quinolin-2-one], the IC50 in assay [1] amounted to 19 nM; on PI3K alfa, 31 nM.

With `CCNc1cc(-c2ccc3ncc4c(c3c2)n(-c2ccc(N(C)CCOC)nc2C)c(=O)n4C)cnc1C` [Example 15.6, 8-(5-Ethylamino-6-methyl-pyridin-3-yl)-1-{6-[(2-methoxy-ethyl)-methyl-amino]-2-methyl-pyridin-3-yl}-3-methyl-1,3-dihydro-imidazo[4,5-c]quinolin-2-one], the results for the IC50 (in assay [1]; on PI3K alfa) were 3 nM and 12 nM, respectively.

Take `COCCN(C)c1ccc(-n2c(=O)n(C)c3cnc4ccc(-c5cnc6c(ccn6C)c5)cc4c32)c(C)n1` [Example 15.7, 1-{6-[(2-Methoxy-ethyl)-methyl-amino]-2-methyl-pyridin-3-yl}-3-methyl-8-(1-methyl-1H-pyrrolo[2,3-b]pyridin-5-yl)-1,3-dihydro-imidazo[4,5-c]quinolin-2-one]: the IC50 in assay [1] was 2 nM; at PI3K alfa it was 18 nM.

With `COCCN(C)c1ccc(-n2c(=O)n(C)c3cnc4ccc(-c5cncc(N)c5)cc4c32)c(C)n1` [Example 15.8, 8-(5-Amino-pyridin-3-yl)-1-{6-[(2-methoxy-ethyl)-methyl-amino]-2-methyl-pyridin-3-yl}-3-methyl-1,3-dihydro-imidazo[4,5-c]quinolin-2-one], the results for the IC50 (in assay [1]; on PI3K alfa) were 6 nM and 49 nM, respectively.

In the case of `Cc1cc(F)ncc1-n1c(=O)n(C)c2cnc3ccc(-c4cnc(N)c(C(F)(F)F)c4)cc3c21` [Example 16.1, 8-(6-Amino-5-trifluoromethyl-pyridin-3-yl)-1-(6-fluoro-4-methyl-pyridin-3-yl)-3-methyl-1,3-dihydro-imidazo[4,5-c]quinolin-2-one], the IC50 in assay [1] was less than 0.457 nM; at PI3K alfa it was 14 nM.

Regarding `CCNc1cc(-c2ccc3ncc4c(c3c2)n(-c2cnc(F)cc2C)c(=O)n4C)cnc1C` [Example 16.2, 8-(5-Ethylamino-6-methyl-pyridin-3-yl)-1-(6-fluoro-4-methyl-pyridin-3-yl)-3-methyl-1,3-dihydro-imidazo[4,5-c]quinolin-2-one], the IC50 in assay [1] amounted to 6 nM; on PI3K alfa, 33 nM.

Consider `CNc1ncc(-c2ccc3ncc4c(c3c2)n(-c2cnc(F)cc2C)c(=O)n4C)cn1` [Example 16.3, 1-(6-Fluoro-4-methyl-pyridin-3-yl)-3-methyl-8-(2-methylamino-pyrimidin-5-yl)-1,3-dihydro-imidazo[4,5-c]quinolin-2-one], for which the IC50 came to 22 nM in assay [1] and 71 nM on PI3K alfa.

Consider `CNc1ccc(-c2ccc3ncc4c(c3c2)n(-c2cnc(F)cc2C)c(=O)n4C)cn1` [Example 16.4, 1-(6-Fluoro-4-methyl-pyridin-3-yl)-3-methyl-8-(6-methylamino-pyridin-3-yl)-1,3-dihydro-imidazo[4,5-c]quinolin-2-one], for which the results for the IC50 (in assay [1]; on PI3K alfa) were 5 nM and 47 nM, respectively.

Take `Cc1cc(F)ncc1-n1c(=O)n(C)c2cnc3ccc(-c4cnc5c(ccn5C)c4)cc3c21` [Example 16.5, 1-(6-Fluoro-4-methyl-pyridin-3-yl)-3-methyl-8-(1-methyl-1H-pyrrolo[2,3-b]pyridin-5-yl)-1,3-dihydro-imidazo[4,5-c]quinolin-2-one]: the IC50 worked out at 12.6 nM in assay [1] and 27 nM at PI3K alfa.

As for `CCOc1ccc(-c2ccc3ncc4c(c3c2)n(-c2cncc(C)c2)c(=O)n4C)cn1` [Example 17.1, 8-(6-Ethoxy-pyridin-3-yl)-3-methyl-1-(5-methyl-pyridin-3-yl)-1,3-dihydro-imidazo[4,5-c]quinolin-2-one], the values for the IC50 (in assay [1]; at PI3K alfa) were 29 nM and 78 nM, respectively.

Regarding `CCNc1cc(-c2ccc3ncc4c(c3c2)n(-c2ccc(OC)nc2Cl)c(=O)n4C)cnc1C` [Example 18.1, 1-(2-Chloro-6-methoxy-pyridin-3-yl)-8-(5-ethylamino-6-methyl-pyridin-3-yl)-3-methyl-1,3-dihydro-imidazo[4,5-c]quinolin-2-one], the results for the IC50 (in assay [1]; on PI3K alfa) were less than 0.457 nM and 40 nM, respectively.

Regarding `COc1ccc(-n2c(=O)n(C)c3cnc4ccc(-c5cnc(N(C)C)nc5)cc4c32)c(Cl)n1` [Example 18.3, 1-(2-Chloro-6-methoxy-pyridin-3-yl)-8-(2-dimethylamino-pyrimidin-5-yl)-3-methyl-1,3-dihydro-imidazo[4,5-c]quinolin-2-one], the IC50 in assay [1] is 4.3 nM; on PI3K alfa, 5 nM.

For `CNc1cc(-c2ccc3ncc4c(c3c2)n(-c2ccc(N(C)C)nc2C)c(=O)n4C)cnc1C` [Example 19.2, 1-(6-Dimethylamino-2-methyl-pyridin-3-yl)-3-methyl-8-(6-methyl-5-methylamino-pyridin-3-yl)-1,3-dihydro-imidazo[4,5-c]quinolin-2-one], the values for the IC50 (in assay [1]; on PI3K alfa) were 1.1 nM and 14 nM, respectively.

Regarding `CCOc1ccc(-c2ccc3ncc4c(c3c2)n(-c2ccc(N(C)C)nc2C)c(=O)n4C)cn1` [Example 19.3, 1-(6-Dimethylamino-2-methyl-pyridin-3-yl)-8-(6-ethoxy-pyridin-3-yl)-3-methyl-1,3-dihydro-imidazo[4,5-c]quinolin-2-one], the IC50 in assay [1] was 2 nM; at PI3K alfa, 55 nM.

Regarding `COCC(=O)Nc1ccc(-n2c(=O)n(C)c3cnc4ccc(-c5cncc(N)c5)cc4c32)c(C)n1` [Example 20.1, N-{5-[8-(5-Amino-pyridin-3-yl)-3-methyl-2-oxo-2,3-dihydro-imidazo[4,5-c]quinolin-1-yl]-6-methyl-pyridin-2-yl}-2-methoxy-acetamide], the IC50 in assay [1] was found to be 32 nM; on PI3K alfa it was 50 nM.

Consider `CCOc1ccc(-c2ccc3ncc4c(c3c2)n(-c2ccc(NC(=O)COC)nc2C)c(=O)n4C)cn1` [Example 20.2, N-{5-[8-(6-Ethoxy-pyridin-3-yl)-3-methyl-2-oxo-2,3-dihydro-imidazo[4,5-c]quinolin-1-yl]-6-methyl-pyridin-2-yl}-2-methoxy-acetamide], for which the IC50 in assay [1] was 131 nM; at PI3K alfa, 162 nM.

As for `CNc1ncc(-c2ccc3ncc4c(c3c2)n(-c2ccc(NC(=O)COC)nc2C)c(=O)n4C)cn1` [Example 20.3, 2-Methoxy-N-{6-methyl-5-[3-methyl-8-(2-methylamino-pyrimidin-5-yl)-2-oxo-2,3-dihydro-imidazo[4,5-c]quinolin-1-yl]-pyridin-2-yl}-acetamide], the IC50 in assay [1] came to 44 nM; at PI3K alfa, 123 nM.

On to `CNc1ccc(-c2ccc3ncc4c(c3c2)n(-c2ccc(NC(=O)COC)nc2C)c(=O)n4C)cn1` [Example 20.4, 2-Methoxy-N-{6-methyl-5-[3-methyl-8-(6-methylamino-pyridin-3-yl)-2-oxo-2,3-dihydro-imidazo[4,5-c]quinolin-1-yl]-pyridin-2-yl}-acetamide], for which the IC50 in assay [1] stood at 63 nM; on PI3K alfa it was 39 nM.
